# Data reported in patent US20220395522A1, “Methods of Use of Glucosamine for Increasing Nitrogen Retention” (TSI Bioproducts (Xuzhou) Co., Ltd., priority 2021, published 2022).
# Test: Body mass, heart rate and blood pressure in randomized, double-blind, placebo-controlled, cross-over supplementation study
# Format: in vivo, human
# Details: GLU condition, mean ± SD
# Procedure: A randomized, double-blind, placebo-controlled, cross-over study design was conducted on healthy males and females. Participants were instructed to report to a laboratory after observing an overnight (8 to 10-hour) fast while maintaining adequate hydration. Participants were asked to abstain from exercise and avoid alcohol and caffeine consumption for 12 hours prior to each study visit. All participants first completed an initial eligibility visit during which a comprehensive medical history, consent document, and body mass index (BMI) assessment were completed. Results from the BMI assessment was used to finalize eligibility. Once deemed eligible, participants were provided with supplies to begin the study protocol.
# The remainder of the study consisted of two identical patterns of testing with the exception of what supplementation protocol was followed. FIG. 1 provides a flowchart of the experimental design. Prior to each visit, food and physical activity logs were completed encompassing four days prior to the scheduled laboratory visit. The four days consisted of two weekend days and two weekdays. Each participant reported to the laboratory for a baseline measurement of height, weight, heart rate, and blood pressure. During this visit, participants completed the Bristol Stool Chart and Gastrointestinal Symptom Rating Scale (GSRS) to assess bowel habits and potential gastrointestinal symptoms. Participants were given instructions on how to collect a stool sample and were instructed to do so within 24 hours of each planned study visit. At the completion of this study visit, participants were provided with their first assigned supplement (either PLA [placebo] or GLU [glucosamine]) and instructed to begin supplementation 21 days prior to their second visit. Participants were instructed to collect their second stool sample on the day of their final supplementation dose. On the morning of their second study visit, participants reported to the laboratory after following identical pre-study instructions as previous visits (i.e., fasting, abstention from caffeine and exercise). Study participants again completed assessments for height, weight, heart rate, blood pressure, and questionnaires regarding their bowel habits and gastrointestinal symptoms while also providing their second stool sample and turning in completed food and activity logs. A washout period lasting a minimum of 14 days and a maximum of 21 days separated each phase of the crossover as shown in FIG. 1.
# In a double-blind manner, a glucosamine supplement (GLU) or a maltodextrin placebo (PLA) was distributed in identical opaque capsules to all participants. On a daily basis, participants were instructed to ingest three capsules, each containing 1,000 mg of glucosamine hydrochloride (GlucosaGreen®, TSI Group Ltd. MT, USA) or a placebo (maltodextrin) identical in appearance for a total of 21 days. Each visit at the beginning of the supplementation regimen (Visits 1 and 4, respectively; See FIG. 1) occurred on or before the first day of supplementation while the final day of supplementation occurred the day before each participant's follow-up visit for that study period (Visits 2 and 4, respectively). Participants were instructed to ingest the supplement 15-30 minutes before breakfast with eight fluid ounces of cold water. In the case of a missed dose, participants were instructed to consume the missed dose as soon as possible with a meal. […] The dose of maltodextrin used in the following examples was two to five-fold lower, respectively, than these investigations.
# Height and weight were measured for every participant without shoes and in minimal clothing using a standardized wall-mounted stadiometer (Tanita, model #HR-200, Tokyo, Japan) and a self-calibrating digital scale (Tanita, model #BWB-627A Class III, Tokyo, Japan). Prior to heart rate and blood pressure measurements, participants rested in a seated position for five minutes. […]
# [1] = Post 21 days, 3 x 1,000 mg/day oral
structure (smiles),measurement,setting,value
"Cl.N[C@H]1C(O)O[C@H](CO)[C@@H](O)[C@@H]1O (stereo partly drawn) [GLU, glucosamine hydrochloride]",Diastolic BP,[1],77.0 ± 9.8 mmHg
same,Heart Rate,[1],63.1 ± 8.1 beats/min
same,Systolic BP,[1],119.4 ± 10.8 mmHg
same,Diastolic BP,Pre (baseline),73.9 ± 9.3 mmHg
same,Heart Rate,Pre (baseline),66.8 ± 7.7 beats/min
same,Systolic BP,Pre (baseline),121.7 ± 14.2 mmHg
